The target in one data set is T1, CYP2C19 (Homo sapiens, UniProt P33261).
T1 construct: Mixed human liver microsomes (HLM) were purchased from Corning Inc; tissue Corning Inc; host or cells: pooled human liver microsomes
The data set can be described thus: Human liver microsomal cytochrome P450 isozyme inhibition assay, CYP2C19. The format is in vitro ADME. To be noted: human liver microsomes. The protocol:
(§1) Experimental Embodiment 4: Human Liver Microsomal Cytochrome P450 Isozyme Inhibition Assay The purpose of the assay was to evaluate the inhibitory activity of the samples against human liver microsomal cytochrome P450 isozyme (CYP1A2, CYP2C9, CYP2C19, CYP2D6 and CYP3A4) using the 5-in-1 probe substrate of the CYP isozyme. Mixed human liver microsomes (HLM) were purchased from Corning Inc. (Steuben, N.Y., USA) and stored below −80° C. before use. The test compound working solution which has been diluted into serial concentrations was added to an incubation system containing human liver microsomes, probe substrates and circulating system cofactors, and a control containing solvent without the test compound was used as the enzyme activity control (100%). The concentration of the metabolite produced by the probe substrate in the sample was determined using a liquid chromatography-tandem mass spectrometry (LC-MS/MS) method. Nonlinear regression analysis was performed on the average percent activity versus concentration of subjects using SigmaPlot (V.11). The IC50 value was calculated by a three-parameter or four-parameter inverse-logarithmic equation.

The target of a further data set is T2, CYP3A4 (Homo sapiens, UniProt P08684).
T2 construct: Mixed human liver microsomes (HLM) were purchased from Corning Inc; tissue Corning Inc; host or cells: pooled human liver microsomes
As to the kind of experiment: Human liver microsomal cytochrome P450 isozyme inhibition assay, CYP3A4. To be noted: human liver microsomes. The data set is classed as in vitro ADME. How it is done: as §1

For data set [1], the system named is human liver microsomal cytochrome P450 isozyme (CYP1A2, CYP2C9, CYP2C19, CYP2D6 and CYP3A4). As to the kind of experiment: Human liver microsomal cytochrome P450 isozyme inhibition assay, summary over the main isozymes. The data set is classed as in vitro ADME. How it is done:
as §1

The target in another data set is T3, human ETB receptor (Homo sapiens, UniProt P24530).
T3 construct: host or cells: CHO cells
T3 sequence (P24530 27-442): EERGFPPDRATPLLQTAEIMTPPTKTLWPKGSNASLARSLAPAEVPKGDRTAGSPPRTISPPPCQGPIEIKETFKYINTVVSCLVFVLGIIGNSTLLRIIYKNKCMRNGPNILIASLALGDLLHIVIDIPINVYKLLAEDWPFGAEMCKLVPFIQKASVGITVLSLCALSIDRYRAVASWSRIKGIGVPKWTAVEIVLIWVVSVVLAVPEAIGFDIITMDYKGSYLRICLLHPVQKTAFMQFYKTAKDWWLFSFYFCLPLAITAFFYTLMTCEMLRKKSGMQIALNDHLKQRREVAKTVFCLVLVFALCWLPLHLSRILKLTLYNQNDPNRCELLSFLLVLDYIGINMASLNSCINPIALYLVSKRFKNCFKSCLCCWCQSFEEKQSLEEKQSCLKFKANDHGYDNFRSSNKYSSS
As to the kind of experiment: In vitro antagonistic effect against human ETB receptor, Ca2+ signal in transfected CHO cells. The format is cell-based. To be noted: response to 0.3 nM endothelin-1. The protocol:
Antagonist activity of the compound against human ETB receptors expressed in transfected CHO cells was evaluated by measuring the effect of the compound on the changes in the cytoplasmic Ca^2+ ion signal induced by human ETB receptor agonists. The functional activity of the ETB receptor antagonistic effect was tested in Eurofins-Cerep SA according to current standard procedures.
1. Cells were suspended in DMEM buffer (Invitrogen) and then distributed in 384-well plate (100 μL/well) at a density of 3×10^4 cells/well;
2. Probenecid in HBSS buffer (Invitrogen) supplemented with 20 mM Hepes (Invitrogen) (pH 7.4) was mixed with fluorescent probe (Fluo4 NW, Invitrogen), the mixture was added to each wells, then balanced with cells at 37° C. for 60 minutes, and then balanced with cells at 22° C. for 15 minutes;
3. The test plate was placed in a microplate reader (CellLux, PerkinElmer), a DMSO solution or HBSS buffer with an appropriate concentration of the test compound and the positive control was added, and 0.3 nM endothelin-1 or HBSS buffer (base control) was added after 5 minutes, and then the change in fluorescence intensity proportional to the concentration of Ca^2+ ions of […] was measured;
4. Results were shown as the percent inhibition of control response to 0.3 nM endothelin-1;
5. Standard positive control was BQ-788, several concentrations were tested in each experiments. The data was analyzed using Prism to generate a concentration-response curve, and IC50 values of the compounds were calculated.

A further data set addresses T4, human ETA receptor (Homo sapiens, UniProt P25101).
T4 construct: endogenously expressed human ETA receptors in SK-N-MC cells; host or cells: SK-N-MC cells
T4 sequence (P25101 21-427): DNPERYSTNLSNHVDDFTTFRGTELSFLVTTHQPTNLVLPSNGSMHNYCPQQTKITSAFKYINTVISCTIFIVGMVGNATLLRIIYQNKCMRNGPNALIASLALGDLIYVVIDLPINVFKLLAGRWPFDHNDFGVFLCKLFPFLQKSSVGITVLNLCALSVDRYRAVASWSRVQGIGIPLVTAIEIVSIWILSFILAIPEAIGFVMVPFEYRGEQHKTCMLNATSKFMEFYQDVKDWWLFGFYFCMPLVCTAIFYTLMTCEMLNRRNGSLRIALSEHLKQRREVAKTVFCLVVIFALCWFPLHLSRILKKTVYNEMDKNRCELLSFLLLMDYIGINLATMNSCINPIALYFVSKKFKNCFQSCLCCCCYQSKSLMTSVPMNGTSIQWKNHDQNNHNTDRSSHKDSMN
The data set can be described thus: In vitro antagonistic effect against human ETA receptor, Ca2+ signal in SK-N-MC cells. As to conditions: for IC50: SK-N-MC cells, response to 1 nM endothelin-1; for ETA/ETB selectivity: ratio of ETB IC50 to ETA IC50. The format is cell-based. The protocol: Experimental Embodiment 1: In Vitro Test of Antagonistic Effect Against Human ETA Receptor
Antagonistic activity of the compounds against endogenously expressed human ETA receptors in SK-N-MC cells was evaluated by measuring the effect of compounds on the changes in cytoplasmic Ca^2+ ion signal induced by human ETA receptor agonists using fluorescence detection methods. The functional activity of the ETA receptor antagonistic effect was tested in Eurofins-Cerep SA according to current standard procedures.
1. Cells were suspended in Dulbecco's modified Eagle medium solution (DMEM, Invitrogen) supplemented with 1% FCSd, then distributed in 384-well plate (100 μL/well) at a density of 5×10^4 cells/well;
2. Probenecid in Hank's balanced salt solution (HBSS, Invitrogen) supplemented with 20 mM 4-(2-hydroxyethyl)piperazine-1-ethanesulfonic acid (Hepes, Invitrogen) (pH 7.4) was mixed with fluorescent probe (Fluo4 NW, Invitrogen), the mixture was added to each wells, then balanced with cells at 37° C. for 60 minutes, and then balanced with cells at 22° C. for 15 minutes;
3. The test plate was placed in a microplate reader (CellLux, PerkinElmer), a DMSO solution or HBSS buffer with an appropriate concentration of the test compound and the positive control was added, and 1 nM endothelin-1 or HBSS buffer (base control) was added after 5 minutes, and then the change in fluorescence intensity proportional to the concentration of Ca^2+ ions of free […] was measured;
5. Standard positive control was BQ-123, several concentrations were tested in each experiments. The data was analyzed using Prism to generate a concentration-response curve, and IC50 values of the compounds were calculated.

The next data set deals with T5, CYP2C9 (Homo sapiens, UniProt P11712).
T5 construct: Mixed human liver microsomes (HLM) were purchased from Corning Inc; tissue Corning Inc; host or cells: pooled human liver microsomes
The data set can be described thus: Human liver microsomal cytochrome P450 isozyme inhibition assay, CYP2C9. As to conditions: human liver microsomes. The data set is classed as in vitro ADME. How it is done: as §1

A further data set has as its target T6, CYP2D6 (Homo sapiens, UniProt P10635).
T6 construct: Mixed human liver microsomes (HLM) were purchased from Corning Inc; tissue Corning Inc; host or cells: pooled human liver microsomes
As to the kind of experiment: Human liver microsomal cytochrome P450 isozyme inhibition assay, CYP2D6. As to conditions: human liver microsomes. The data set is classed as in vitro ADME. The protocol:
as §1

The next data set has as its target T7, CYP1A2 (Homo sapiens, UniProt P05177).
T7 construct: Mixed human liver microsomes (HLM) were purchased from Corning Inc; tissue Corning Inc; host or cells: pooled human liver microsomes
T7 sequence (P05177 1-516): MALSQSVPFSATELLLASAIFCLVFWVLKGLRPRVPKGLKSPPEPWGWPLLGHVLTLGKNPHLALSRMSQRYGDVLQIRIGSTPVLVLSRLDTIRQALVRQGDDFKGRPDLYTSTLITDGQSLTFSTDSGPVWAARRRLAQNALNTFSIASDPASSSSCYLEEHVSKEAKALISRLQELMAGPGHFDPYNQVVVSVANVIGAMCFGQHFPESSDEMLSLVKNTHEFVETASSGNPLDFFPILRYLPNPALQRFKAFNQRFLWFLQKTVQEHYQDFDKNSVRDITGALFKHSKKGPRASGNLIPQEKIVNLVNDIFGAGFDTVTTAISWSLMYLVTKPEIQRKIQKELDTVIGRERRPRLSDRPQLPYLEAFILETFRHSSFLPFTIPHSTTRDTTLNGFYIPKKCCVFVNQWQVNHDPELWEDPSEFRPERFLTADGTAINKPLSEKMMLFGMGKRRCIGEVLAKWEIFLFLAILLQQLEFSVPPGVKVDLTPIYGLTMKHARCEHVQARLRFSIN
The data set can be described thus: Human liver microsomal cytochrome P450 isozyme inhibition assay, CYP1A2. The data set is classed as in vitro ADME. To be noted: human liver microsomes. The protocol: as §1

T6 sequence (P10635 whole entry): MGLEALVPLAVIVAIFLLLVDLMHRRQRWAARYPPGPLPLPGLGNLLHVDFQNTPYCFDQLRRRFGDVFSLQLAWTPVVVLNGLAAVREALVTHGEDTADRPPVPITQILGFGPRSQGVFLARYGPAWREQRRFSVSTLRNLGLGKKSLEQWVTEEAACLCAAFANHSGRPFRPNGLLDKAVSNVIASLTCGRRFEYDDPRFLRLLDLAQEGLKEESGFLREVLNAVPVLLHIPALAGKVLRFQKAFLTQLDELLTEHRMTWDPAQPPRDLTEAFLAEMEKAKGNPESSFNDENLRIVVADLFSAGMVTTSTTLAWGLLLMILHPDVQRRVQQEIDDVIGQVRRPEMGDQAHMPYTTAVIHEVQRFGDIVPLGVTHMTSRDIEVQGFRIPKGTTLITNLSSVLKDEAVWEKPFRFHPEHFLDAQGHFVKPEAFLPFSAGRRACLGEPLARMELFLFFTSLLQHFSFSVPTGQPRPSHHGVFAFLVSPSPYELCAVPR
T2 sequence (P08684 whole entry): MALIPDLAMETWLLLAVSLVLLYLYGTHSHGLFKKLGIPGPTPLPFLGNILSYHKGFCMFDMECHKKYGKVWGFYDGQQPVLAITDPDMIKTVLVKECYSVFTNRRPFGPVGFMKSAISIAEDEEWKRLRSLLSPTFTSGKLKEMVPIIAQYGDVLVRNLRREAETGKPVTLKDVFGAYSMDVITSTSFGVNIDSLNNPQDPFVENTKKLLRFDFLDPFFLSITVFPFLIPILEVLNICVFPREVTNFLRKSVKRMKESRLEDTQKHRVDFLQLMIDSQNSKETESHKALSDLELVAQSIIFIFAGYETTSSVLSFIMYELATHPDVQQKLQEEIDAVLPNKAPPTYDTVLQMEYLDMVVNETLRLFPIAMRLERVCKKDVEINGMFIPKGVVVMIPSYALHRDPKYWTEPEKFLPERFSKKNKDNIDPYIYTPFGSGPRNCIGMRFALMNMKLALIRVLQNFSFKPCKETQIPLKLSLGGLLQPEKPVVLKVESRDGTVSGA
T5 sequence (P11712 whole entry): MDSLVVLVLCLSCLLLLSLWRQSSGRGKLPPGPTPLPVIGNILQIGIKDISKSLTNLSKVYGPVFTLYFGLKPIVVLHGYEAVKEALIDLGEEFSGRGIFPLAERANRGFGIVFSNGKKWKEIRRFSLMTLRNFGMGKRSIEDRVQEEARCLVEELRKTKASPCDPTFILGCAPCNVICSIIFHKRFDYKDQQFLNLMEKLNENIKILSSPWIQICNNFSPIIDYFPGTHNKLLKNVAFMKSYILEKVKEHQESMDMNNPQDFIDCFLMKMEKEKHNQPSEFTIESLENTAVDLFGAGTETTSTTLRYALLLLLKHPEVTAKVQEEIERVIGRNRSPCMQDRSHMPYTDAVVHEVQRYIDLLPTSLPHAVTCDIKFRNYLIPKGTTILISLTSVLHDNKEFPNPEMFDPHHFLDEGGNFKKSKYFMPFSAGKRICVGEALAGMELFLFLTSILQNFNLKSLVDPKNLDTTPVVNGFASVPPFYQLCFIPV
T1 sequence (P33261 whole entry): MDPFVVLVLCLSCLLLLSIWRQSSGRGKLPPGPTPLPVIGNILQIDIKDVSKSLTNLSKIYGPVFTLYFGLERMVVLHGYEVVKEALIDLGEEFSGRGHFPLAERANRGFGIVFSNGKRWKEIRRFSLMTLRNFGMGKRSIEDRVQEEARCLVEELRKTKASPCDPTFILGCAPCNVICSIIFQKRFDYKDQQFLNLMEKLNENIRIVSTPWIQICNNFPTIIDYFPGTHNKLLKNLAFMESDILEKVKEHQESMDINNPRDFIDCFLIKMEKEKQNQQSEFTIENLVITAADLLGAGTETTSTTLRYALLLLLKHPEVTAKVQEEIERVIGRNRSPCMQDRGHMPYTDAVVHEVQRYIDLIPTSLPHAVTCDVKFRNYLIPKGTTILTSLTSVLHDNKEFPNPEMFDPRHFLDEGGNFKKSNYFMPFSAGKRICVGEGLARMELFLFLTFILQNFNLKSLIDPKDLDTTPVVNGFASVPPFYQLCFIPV

As to `CCCNS(=O)(=O)Nc1ncnc(OCCOc2ncc(Br)cn2)c1-c1ccc2ccnn2c1` [WX025], the IC50 on CYP2C19 was above 50 µM; at CYP3A4 it was above 50 µM; on human ETB receptor, 61 µM; against human ETA receptor, 0.0031 µM; against CYP2C9 it was 35 µM; against CYP2D6, above 50 µM. Also, the IC50 against CYP1A2 was above 50 µM. The “inhibitory effects on five main isozymes of CYP (in words)” value in data set [1] is listed as “very weak”. Besides, the ETA/ETB selectivity at human ETA receptor is 19600.

In the case of `O=S(=O)(NCC1CC1)Nc1ncnc(OCCOc2ncc(Br)cn2)c1-c1ccc2scnc2c1` [WX005], the IC50 against CYP2C19 was above 50 µM; at CYP3A4, above 50 µM; on human ETB receptor, 110 µM; at human ETA receptor, 0.0014 µM; against CYP2C9, above 50 µM; against CYP2D6 it was above 50 µM. Moreover, the IC50 at CYP1A2 is above 50 µM. Further, the “inhibitory effects on five main isozymes of CYP (in words)” value in data set [1] was “very weak”. On human ETA receptor, the ETA/ETB selectivity was determined as 78500.

On to `CCCOCCNS(=O)(=O)Nc1ncnc(OCCOc2ncc(Br)cn2)c1-c1ccc2scnc2c1` [WX006], for which the 50% inhibitory concentration (IC50) on human ETB receptor is above 300 µM. On human ETA receptor, the IC50 amounted to 0.0013 µM and the ETA/ETB selectivity is above 230700.

Values taken from patent US11319305B2, “Pyrimidine sulfamide derivative and preparation method and medical application thereof” (SHIJIAZHUANG SAGACITY NEW DRUG DEVELOPMENT CO., LTD., priority 2017, dated 2022).
